How the values were obtained:
Assay type in all cases: in vivo
[1] = system: Euphorbia heterophylla (EPHHL); assay: Post-emergence application in field trials, EPHHL; conditions: 43 DAT; water volume 200 l/ha; growth stage 16-18; height 10-15 cm; 20 g ai/ha
Protocol: (§1) In the examples below, using the method of S. R. Colby (1967) “Calculating synergistic and antagonistic responses of herbicide combinations”, Weeds 15, p. 22ff., the value E, which is expected if the activity of the individual active compounds is only additive, was calculated: E=X+Y−(X·Y/100) • where • X=percent activity using active herbicide A at an application rate a; • Y=percent activity using active trifludimoxazin at an application rate b; • E=expected activity (in %) by A+B at application rates a+b.
(§2) If the value found experimentally is higher than the value E calculated according to Colby, a synergistic effect is present.
(§3) On field test sites, natural weed infestation or seeded weeds were treated post-emergence of the weeds.
(§4) In the field trials, the weedy plants were treated as indicated below.
(§5) Herbicide A-1 (342 g/I), trifludimoxazin (500 g/I) and saflufenacil (342 g/I) were, together with addition of 1% MSO (methylated seed oil) as adjuvant (unless indicated otherwise), formulated in water as distribution medium as indicated and sprayed with commercial flat fan nozzles.
(§6) In the following experiments, the herbicidal activity for the individual herbicidal compositions (solo and mixture applications) was assessed at the indicated days after treatment (DAT). […]

[2] = system: Digitaria sanguinales (DIGSA); assay: Post-emergence application in greenhouse trials, DIGSA
Protocol: as §1, §2
(§7) The culture containers used were plastic pots containing loamy sand with approximately 3.0% of humus as substrate. The seeds of the test plants were sown separately for each species.
(§8) For the post-emergence treatment, the test plants were grown to a plant height of from 3 to 15 cm, depending on the plant habit, and only then treated with the active compounds which had been suspended or emulsified in water. To this end, the test plants were either sown directly, and grown in the same containers, or they were first grown separately as seedlings and transplanted into the test containers a few days prior to treatment.
(§9) Depending on the species, the plants were kept at 10-25° C. and 20-35° C., respectively.
(§10) The test period extended over 2 to 4 weeks. During this time, the plants were tended and their response to the individual treatments was evaluated.
(§11) Evaluation was carried out using a scale from 0 to 100. 100 means no emergence of the plants, or complete destruction of at least the above-ground parts, and 0 means no damage or normal course of growth. A good herbicidal activity is given at values of at least 70, and very good herbicidal activity is given at values of at least 85.
(§12) In the greenhouse trials, unless indicated otherwise, herbicide A, trifludimoxazin and saflufenacil were formulated (50 g/I) and applied with addition of 1% MSO (methylated seed oil) as adjuvant. The solvent used was water (200 I/ha).

[3] = system: Sorghum halapense (SORHA); assay: Post-emergence application in greenhouse trials, SORHA
Protocol: as §1, §2, §7, §8, §9, §10, §11, §12

[4] = system: Avena fatua (AVEFA); assay: Post-emergence application in greenhouse trials, AVEFA
Protocol: as §1, §2, §7, §8, §9, §10, §11, §12

[5] = system: Kochia scoparia (KCHSC); assay: Post-emergence application in greenhouse trials, KCHSC
Protocol: as §1, §2, §7, §8, §9, §10, §11, §12

[6] = system: Spermacoce latifolia (BOIFL); assay: Post-emergence application in field trials, BOIFL; conditions: 8 DAT, water volume 200 l/ha, growth stage 12-16, height 3-10 cm
Protocol: as §1, §2, §3, §4, §5
(§13) In the following experiments, the herbicidal activity for the individual herbicidal compositions (solo and mixture applications) was assessed at the indicated days after treatment (DAT). The assessments for the damage on undesired weeds caused by the composition was carried out using a scale from 0 to 100%, compared to the untreated control plants. Here, 0 means no damage and 100 means complete destruction of the plants.
(§14) Herbicide A-1 (100 g/l) and trifludimoxazin (500 g/l) were, together with addition of 1% MSO (methylated seed oil) as adjuvant (unless indicated otherwise), formulated in water as distribution medium as indicated and sprayed with commercial flat fan nozzles.

[7] = system: Setaria faberi (SETFA); assay: Post-emergence application in greenhouse trials, SETFA; conditions: GS 13
Protocol: as §1, §2, §7, §8, §9, §10, §11, §12

[8] = system: Amaranthus palmeri (AMAPA); assay: Post-emergence application in field trials, AMAPA; conditions: 21 DAT, water volume 200 l/ha, 0.25 l/ha Dash MSO Max, pre plant burndown, height 30 cm
Protocol: as §1, §2, §3, §4, §5, §13, §14

[9] = system: Erigeron canadensis (ERICA); assay: Post-emergence application in field trials, ERICA; conditions: 22 DAT; water volume 200 l/ha; growth stage 15-20; 25 g ai/ha
Protocol: as §1, §2, §3, §4, §5, §6

[10] = system: Setaria viridis (SETVI); assay: Post-emergence application in greenhouse trials, SETVI
Protocol: as §1, §2, §7, §8, §9, §10, §11, §12

[11] = system: Hordeum vulgare (HORVS); assay: Post-emergence application in field trials, HORVS; conditions: water volume 100 l/ha, pre plant burndown, 18 g ai/ha
Protocol: as §1, §2, §3, §4, §5, §13, §14

[12] = system: Erigeron canadensis (ERICA); assay: Post-emergence application in greenhouse trials, ERICA; conditions: 20 DAT; GS 19; A-1 0.2 g ai/ha
Protocol: as §1, §2, §7
as §8, with “treatment. […]” for “treatment.”
The test period extended over 2 to 4 weeks. During this time, the plants were tended and their response to the individual treatments was evaluated. […]

[13] = system: Setaria italica (SETIT); assay: Post-emergence application in field trials, SETIT; conditions: 22 DAT; water volume 200 l/ha; growth stage 21-31; 30 g ai/ha
Protocol: as §1, §2, §3, §4, §5, §6

[14] = system: Lolium multiflorum (LOLMU); assay: Post-emergence application in greenhouse trials, LOLMU; conditions: 20 DAT
Protocol: as §1, §2, §7, §8, §9, §10, §11, §12

[15] = system: Brachiaria decumbens (BRADC); assay: Post-emergence application in field trials, BRADC; conditions: 3 DAT; water volume 200 l/ha; growth stage 21-31; height 3-20 cm; 20 g ai/ha
Protocol: as §1, §2, §3, §4, §5, §6

[16] = 20 DAT, growth stage 14, 0.3 g ai/ha

CCOC(=O)COc1ccccc1Oc1nc(-n2c(=O)cc(C(F)(F)F)n(C)c2=O)c(F)cc1Cl [A-1, ethyl 2-[2-[[3-chloro-5-fluoro-6-[3-methyl-2,6-dioxo-4-(trifluoromethyl)pyrimidin-1-yl]-2-pyridyl]oxy]phenoxy]acetate]
% Herbicidal activity [1]: 73%
% Herbicidal activity ([2]; 7 DAT, GS 12, A-1 0.3 g ai/ha): 45%
% Herbicidal activity ([2]; 7 DAT, GS 12, A-1 0.4 g ai/ha): 50%
% Herbicidal activity ([2]; 7 DAT, GS 12, A-1 0.8 g ai/ha): 65%
% Herbicidal activity ([2]; 7 DAT, GS 12, A-1 0.9 g ai/ha): 90%
% Herbicidal activity ([2]; 19 DAT, B-1 formulated as 500 g/l, GS 13, A-1 1 g ai/ha): 95%
% Herbicidal activity ([3]; 7 DAT, B-1 formulated as 500 g/l, GS 14, A-1 2 g ai/ha): 80%
% Herbicidal activity ([3]; 20 DAT, B-1 formulated as 500 g/l, GS 14, A-1 2 g ai/ha): 60%
% Herbicidal activity ([3]; 20 DAT, GS 14, A-1 0.2 g ai/ha): 10%
% Herbicidal activity ([3]; 20 DAT, GS 14, A-1 0.3 g ai/ha): 10%
% Herbicidal activity [3, 16]: 10%
% Herbicidal activity ([4]; 7 DAT, GS 13, A-1 1 g ai/ha): 65%
% Herbicidal activity ([4]; 20 DAT, B-1 formulated as 500 g/l, GS 12, A-1 2 g ai/ha): 98%
% Herbicidal activity ([4]; 20 DAT, GS 13, A-1 0.3 g ai/ha): 15%
% Herbicidal activity ([4]; 20 DAT, growth stage 13, 0.3 g ai/ha): 15%
% Herbicidal activity ([5]; 6 DAT, GS 33, A-1 0.4 g ai/ha): 55%
% Herbicidal activity ([5]; 6 DAT, GS 33, A-1 0.5 g ai/ha): 65%
% Herbicidal activity ([5]; 6 DAT, GS 33, A-1 0.9 g ai/ha): 90%
% Herbicidal activity ([5]; 20 DAT, GS 33, A-1 0.2 g ai/ha): 15%
% Herbicidal activity ([5]; 20 DAT, GS 33, A-1 0.3 g ai/ha): 55%
% Herbicidal activity ([5]; 20 DAT, GS 33, A-1 0.5 g ai/ha): 55%
% Herbicidal activity ([5]; 20 DAT, GS 33, A-1 0.9 g ai/ha): 90%
% Herbicidal activity ([5]; 20 DAT, growth stage 33, 0.3 g ai/ha): 55%
% Herbicidal activity ([5]; 20 DAT, growth stage 33, 0.5 g ai/ha): 55%
% Herbicidal activity ([6]; 20 g ai/ha): 75%
% Herbicidal activity ([6]; 30 g ai/ha): 82%
% Herbicidal activity ([7]; 7 DAT, A-1 0.3 g ai/ha): 55%
% Herbicidal activity ([7]; 7 DAT, A-1 0.5 g ai/ha): 80%
% Herbicidal activity ([7]; 20 DAT, A-1 0.3 g ai/ha): 80%
% Herbicidal activity ([8]; A-1 12.5 g ai/ha): 70%
% Herbicidal activity ([8]; A-1 25 g ai/ha): 85%
% Herbicidal activity [9]: 70%
% Herbicidal activity ([10]; 7 DAT, GS 14, A-1 0.2 g ai/ha): 30%
% Herbicidal activity ([10]; 7 DAT, GS 14, A-1 0.3 g ai/ha): 30%
% Herbicidal activity ([10]; 7 DAT, GS 14, A-1 0.4 g ai/ha): 40%
% Herbicidal activity ([10]; 20 DAT, GS 14, A-1 0.3 g ai/ha): 15%
% Herbicidal activity [10, 16]: 15%
% Herbicidal activity ([11]; 28 DAT, growth stage 21-24, height 15-37 cm): 89%
% Herbicidal activity ([11]; 29 DAT, growth stage 15-24, height 25-45 cm): 73%
% Herbicidal activity [12]: 10%
% Herbicidal activity [13]: 88%
% Herbicidal activity ([14]; GS 13, A-1 0.3 g ai/ha): 10%
% Herbicidal activity ([14]; growth stage 13, 0.3 g ai/ha): 10%
% Herbicidal activity [15]: 77%

From patent publication US12213483B1, “Herbicidal compositions comprising trifludimoxazin” (BASF SE, priority 2024, dated 2025)
